Earlier results, collected in patent US20050220774A1, “Methods of inducing differentiation in ex vivo expanded stem cells” (priority 2002, published 2005).

Columns and labels:
[1] = tested on: CD34+ cells
[2] = tested on: stem cells; settings: PCT/IL03/00064

| Structure (SMILES) | clonability of long-term cultures ([1]; long-term cultures (3-5 weeks)) | cell clonability and percentage of CD34+ cells ([1]; with early-acting or early and late acting cytokines) | differentiation of stem cells ex vivo [2] |
| --- | --- | --- | --- |
| NCCNCCNCCNCCN [TEPA, tetraethylenepentamine] | more efficient clonability | significant increases |  |
| NC(=O)c1cccnc1 [nicotinamide] |  |  | represses the process of differentiation of stem cells |
